We go through 64 compounds from ChEMBL document CHEMBL3774368, “1,2,4-Triazolyl octahydropyrrolo[2,3-b]pyrroles: A new series of potent and selective dopamine D3 receptor antagonists” (Bioorg Med Chem, 2016).

Assay [1] concerns the target D(2) dopamine receptor (Homo sapiens, UniProt P14416). Description: Displacement of [3H]-spiperone from human dopamine D2 receptor expressed in CHO-K1 cell membranes after 120 mins by liquid scintillation counter method.
Assay [2] deals with Voltage-gated inwardly rectifying potassium channel KCNH2 (Homo sapiens, UniProt Q12809). Briefly: Inhibition of human ERG tail current expressed in HEK293 cells after 5 mins by patch clamp assay. A general note: Patch clamp records ionic current or voltage across a cell membrane.
Assay [3] addresses D(3) dopamine receptor (Homo sapiens, UniProt P35462). Briefly: Displacement of [3H]-spiperone from human dopamine D3 receptor expressed in CHO-K1 cell membranes after 90 mins by liquid scintillation counter method. In general terms: In a radioligand displacement assay an active substance lowers the binding of a labelled ligand.

Each structure is given as a SMILES string.

As a reminder, the Ki is the dissociation constant of the complex between target and ligand, obtained from inhibition or displacement. Low readings indicate tighter binding, high ones weaker binding. What is called IC50 is the concentration needed to halve the response being measured. A higher IC50 goes with a need for much substance.

Chain of D(3) dopamine receptor (P35462 whole entry): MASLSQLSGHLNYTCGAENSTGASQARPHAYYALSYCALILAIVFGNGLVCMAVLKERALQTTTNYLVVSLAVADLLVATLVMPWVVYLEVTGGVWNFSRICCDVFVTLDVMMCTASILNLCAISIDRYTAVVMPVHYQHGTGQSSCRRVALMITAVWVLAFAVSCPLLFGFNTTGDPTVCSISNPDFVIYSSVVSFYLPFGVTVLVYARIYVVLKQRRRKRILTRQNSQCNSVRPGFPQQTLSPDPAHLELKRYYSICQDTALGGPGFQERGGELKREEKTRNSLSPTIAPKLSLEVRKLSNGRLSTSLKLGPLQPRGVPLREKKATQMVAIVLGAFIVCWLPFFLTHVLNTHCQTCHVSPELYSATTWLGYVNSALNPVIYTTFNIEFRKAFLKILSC
Chain of D(2) dopamine receptor (P14416 whole entry): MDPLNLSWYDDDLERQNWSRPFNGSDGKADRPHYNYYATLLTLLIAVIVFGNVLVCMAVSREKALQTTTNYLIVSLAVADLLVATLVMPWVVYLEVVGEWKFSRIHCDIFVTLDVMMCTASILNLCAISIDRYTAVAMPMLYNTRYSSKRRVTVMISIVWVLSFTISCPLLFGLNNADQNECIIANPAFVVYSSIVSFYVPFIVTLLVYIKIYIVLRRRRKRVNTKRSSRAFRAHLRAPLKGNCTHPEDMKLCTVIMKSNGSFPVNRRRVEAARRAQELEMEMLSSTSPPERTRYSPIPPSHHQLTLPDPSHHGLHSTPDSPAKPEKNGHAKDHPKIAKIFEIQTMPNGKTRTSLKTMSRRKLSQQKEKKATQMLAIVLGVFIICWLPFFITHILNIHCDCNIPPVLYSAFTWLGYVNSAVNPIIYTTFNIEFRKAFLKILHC
Chain of Voltage-gated inwardly rectifying potassium channel KCNH2 (Q12809 whole entry): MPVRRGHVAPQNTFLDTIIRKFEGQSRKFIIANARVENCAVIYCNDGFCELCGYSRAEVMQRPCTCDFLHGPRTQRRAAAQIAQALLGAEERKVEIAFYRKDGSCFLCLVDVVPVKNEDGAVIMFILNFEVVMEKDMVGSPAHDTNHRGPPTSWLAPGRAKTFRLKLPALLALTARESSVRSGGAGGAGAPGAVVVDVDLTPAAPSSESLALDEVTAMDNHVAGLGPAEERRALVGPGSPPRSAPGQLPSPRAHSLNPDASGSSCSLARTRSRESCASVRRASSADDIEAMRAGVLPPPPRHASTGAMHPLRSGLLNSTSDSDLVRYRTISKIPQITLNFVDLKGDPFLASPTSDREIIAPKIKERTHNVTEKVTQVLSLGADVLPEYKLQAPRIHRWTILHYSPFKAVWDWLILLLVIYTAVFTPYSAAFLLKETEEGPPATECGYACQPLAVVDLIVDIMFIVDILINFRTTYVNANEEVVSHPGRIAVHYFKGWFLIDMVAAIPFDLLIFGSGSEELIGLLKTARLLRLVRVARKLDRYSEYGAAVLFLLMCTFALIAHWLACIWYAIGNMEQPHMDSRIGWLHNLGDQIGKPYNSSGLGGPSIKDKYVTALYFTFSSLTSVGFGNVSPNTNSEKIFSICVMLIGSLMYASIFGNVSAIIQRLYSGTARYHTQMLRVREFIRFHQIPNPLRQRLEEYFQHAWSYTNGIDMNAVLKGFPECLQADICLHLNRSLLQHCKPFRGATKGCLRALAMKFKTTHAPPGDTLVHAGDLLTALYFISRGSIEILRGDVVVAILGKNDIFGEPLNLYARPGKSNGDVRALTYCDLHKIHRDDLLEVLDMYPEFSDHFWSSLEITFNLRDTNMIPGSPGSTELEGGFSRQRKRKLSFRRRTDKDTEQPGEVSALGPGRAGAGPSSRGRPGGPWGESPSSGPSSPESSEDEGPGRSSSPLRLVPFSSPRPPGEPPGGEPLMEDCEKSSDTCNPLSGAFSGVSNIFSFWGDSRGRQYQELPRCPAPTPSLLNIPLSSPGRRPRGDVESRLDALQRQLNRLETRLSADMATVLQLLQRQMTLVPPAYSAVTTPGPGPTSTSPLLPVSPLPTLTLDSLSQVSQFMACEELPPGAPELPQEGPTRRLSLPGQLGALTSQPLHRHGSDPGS

Take `Cn1c(SCCCN2CC3CCN(c4ccc(C(F)(F)F)cc4)C3C2)nnc1-c1cc[nH]c(=O)c1` (racemic): the Ki in assay [1] was 631 nM; in assay [3], 7.94 nM. In assay [2], the IC50 was 1260 nM.

On to `Cn1c(SCCCN2CC3CCN(c4cccc(C(F)(F)F)c4)C3C2)nnc1-c1cnccn1` (racemic), for which the results for the Ki in assay [1] and in assay [3] were 31.6 nM and 0.2 nM, respectively.

As for `Cn1c(SCCCN2CC3CCN(c4ccc(F)cc4)C3C2)nnc1C1CCCCC1` (racemic), the Ki is 794 nM in assay [1] and 12.6 nM in assay [3].

For `Cn1c(SCCCN2CC3CCN(c4ccc(C(F)(F)F)cc4)C3C2)nnc1C1CCCC1` (racemic), in assay [3], the Ki is 0.398 nM. In other words, the sub-nanomolar range.

For `Cn1c(SCCCN2CC3CCN(c4ccc(C(F)(F)F)cc4)C3C2)nnc1C1CCCCC1` (racemic), the Ki in assay [1] is 6310 nM; in assay [3] it was 39.8 nM.

As to `Cn1c(SCCCN2CC3CCN(c4ccc(C(F)(F)F)cc4)C3C2)nnc1-c1ccncc1` (racemic), the Ki was 398 nM in assay [1] and 2 nM in assay [3].

Regarding `Cc1ncoc1-c1nnc(SCCCN2CC3CN(c4ccc(C(F)(F)F)cc4)C3C2)n1C` (racemic), the IC50 in assay [2] was 631 nM. In assay [3], this compound gave a Ki of 39.8 nM.

Regarding `Cn1c(SCCCN2CC3CCN(c4c(F)cc(F)cc4F)C3C2)nnc1-c1cnccn1` (racemic), the Ki was 631 nM in assay [1] and 1 nM in assay [3].

Take `Cn1c(SCCCN2CC3CCN(c4ccc(C(F)(F)F)cc4)C3C2)nnc1-c1ccnnc1` (racemic): the Ki is 631 nM in assay [1] and 12.6 nM in assay [3].

Consider `Cc1ncoc1-c1nnc(SCCCN2CC3CCN(c4ccc(C(F)(F)F)cc4)C3C2)n1C` (racemic), for which the Ki in assay [3] is 1.58 nM.

`Cn1c(SCCCN2CC3CCN(c4ccc(F)cc4)C3C2)nnc1-c1ccn(C)c(=O)c1` (racemic): the Ki in assay [1] is 398 nM; in assay [3] it was 7.94 nM.

As to `Cc1ncoc1-c1nnc(SCCCN2CC3CCN(c4ccc(F)cc4)C3C2)n1C` (racemic), in assay [1], the Ki is 200 nM.

As for `Cn1c(SCCCN2CC3CCN(c4ccc(F)cc4F)C3C2)nnc1-c1cnccn1` (racemic), the inhibitory constant (Ki) is 398 nM in assay [1] and 10 nM in assay [3].

Compound `Cn1c(SCCCN2CC3CCN(c4ccccc4)C3C2)nnc1C1CCOCC1` (racemic) had a Ki in assay [3] of 12.6 nM.

For `Cn1c(SCCCN2CC3CCN(c4ccc(C(F)(F)F)cc4)C3C2)nnc1-c1ccc(=O)n(C)c1` (racemic), the Ki in assay [3] is 6.31 nM. Compared with the last compound, the Ki is about 2-fold lower.

Regarding `Cn1c(SCCCN2CC3CCN(c4cccc(F)c4)C3C2)nnc1-c1cnccn1` (racemic), the figures for the Ki in assay [1] and in assay [3] were 251 nM and 5.01 nM, respectively.

Take `Cn1c(SCCCN2CC3CCN(c4cccc(OC(F)(F)F)c4)C3C2)nnc1-c1cnccn1` (racemic): the Ki in assay [3] is 0.316 nM.

`Cn1c(SCCCN2CC3CCN(c4ccc(F)cc4C(F)(F)F)C3C2)nnc1-c1cnccn1` (racemic): in assay [3], the Ki is 25.1 nM. This Ki is about 79-fold higher than that of the compound before.

In assay [3], `Cc1ccccc1N1CCC2CN(CCCSc3nnc(-c4cnccn4)n3C)CC21` (racemic) had a Ki of 126 nM.

Turning to `Cn1c(SCCCN2CC3CCN(c4ccc(F)cc4)C3C2)nnc1-c1cnccn1` (racemic), the Ki in assay [1] was 200 nM; in assay [3], 2 nM.

Compound `Cn1c(SCCCN2CC3CCN(c4ccc(F)cc4)C3C2)nnc1-c1cc[nH]c(=O)c1` (racemic) gave a Ki in assay [1] of 631 nM.

With `Cn1cc(-c2nnc(SCCCN3CC4CCN(c5ccc(C(F)(F)F)cc5)C4C3)n2C)cn1` (racemic), in assay [1], the affinity, expressed as Ki, was 200 nM.

Take `Cc1ccc(N2CCC3CN(CCCSc4nnc(-c5cnccn5)n4C)CC32)cc1` (racemic): the figures for the Ki in assay [1] and in assay [3] were 631 nM and 7.94 nM, respectively.

Consider `Cn1c(SCCCN2CC3CCN(c4ccc(C#N)cc4)C3C2)nnc1-c1cnccn1` (racemic), for which the results for the Ki in assay [1] and in assay [3] were 6310 nM and 126 nM, respectively.

The compound `Cn1c(SCCCN2CC3CCN(c4ccccc4C(F)(F)F)C3C2)nnc1-c1cccnc1` (racemic) gave an inhibition constant Ki in assay [1] of 794 nM.

With `Cn1c(SCCCN2CC3CCN(c4ccccc4C(F)(F)F)C3C2)nnc1-c1ccncc1` (racemic), the Ki in assay [1] was 251 nM; in assay [3], 5.01 nM.

The compound `Cn1c(SCCCN2CC3CCN(c4ccc(C(F)(F)F)cc4)C3C2)nnc1N1CCOCC1` (racemic) showed an inhibition constant Ki in assay [1] of 200 nM.

As to `Cn1c(SCCCN2CC3CCN(c4ccc(OC(F)(F)F)cc4)C3C2)nnc1-c1cnccn1` (racemic), the Ki in assay [1] is 316 nM; in assay [3], 12.6 nM.

For the compound `Cc1ncoc1-c1nnc(SCCCN2CC3CCN(c4ccc(OC(F)(F)F)cc4)C3C2)n1C` (racemic), the Ki in assay [1] is 631 nM.

As for `Cn1c(SCCCN2CC3CCN(c4ccccc4C(F)(F)F)C3C2)nnc1-c1ccccn1` (racemic), the Ki in assay [1] is 316 nM; in assay [3], 5.01 nM.

In the case of `Cc1cc(-c2nnc(SCCCN3CC4CCN(c5ccc(C(F)(F)F)cc5)C4C3)n2C)on1` (racemic), the values for the Ki in assay [1] and in assay [3] were 158 nM and 2.51 nM, respectively.

`Cc1ncoc1-c1nnc(SCCCN2CC3CCN(c4cccc(C#N)c4)C3C2)n1C` (racemic) gave a Ki in assay [1] of 50.1 nM.

In turn, `Cn1c(SCCCN2CC3CCN(c4ccc(C(F)(F)F)cc4)C3C2)nnc1-c1ccccn1` (racemic) showed a Ki in assay [1] of 398 nM.

For `Cn1c(SCCCN2CC3CCN(c4ccc(C(F)(F)F)cc4)C3C2)nnc1-c1cncnc1` (racemic), the results for the Ki in assay [1] and in assay [3] were 1260 nM and 50.1 nM, respectively.

On to `Cn1c(SCCCN2CC3CCN(c4ccc(C(F)(F)F)cc4)C3C2)nnc1-c1cccnn1` (racemic), for which the Ki in assay [1] is 316 nM; in assay [3], 50.1 nM.

Regarding `Cc1ncoc1-c1nnc(SCCCN2CC3CCN(c4ccccc4)C3C2)n1C` (racemic), the Ki in assay [1] was 251 nM. In other words, the sub-micromolar range.

Compound `Cc1ncoc1-c1nnc(SCCCN2CC3OCCN(c4ccc(C(F)(F)F)cc4)C3C2)n1C` (racemic) gave a Ki in assay [3] of 31.6 nM.

Regarding `CC(C)Oc1ccccc1N1CCC2CN(CCCSc3nnc(-c4cnccn4)n3C)CC21` (racemic), the results for the Ki in assay [1] and in assay [3] were 251 nM and 10 nM, respectively.

Take `Cn1c(SCCCN2CC3CCN(c4ccc(C(F)(F)F)cc4)C3C2)nnc1-c1cccnc1` (racemic): the Ki in assay [3] is 3.16 nM.

In the case of `COc1ccccc1N1CCC2CN(CCCSc3nnc(-c4cnccn4)n3C)CC21` (racemic), the figures for the Ki in assay [1] and in assay [3] were 316 nM and 15.8 nM, respectively.

For `Cn1c(SCCCN2CC3CCN(c4ccccc4C#N)C3C2)nnc1-c1cnccn1` (racemic), the figures for the Ki in assay [1] and in assay [3] were 200 nM and 6.31 nM, respectively.

As for `Cn1c(SCCCN2CC3CCN(c4cccc(C#N)c4)C3C2)nnc1-c1cnccn1` (racemic), the figures for the Ki in assay [1] and in assay [3] were 100 nM and 2 nM, respectively.

Take `Cn1c(SCCCN2CC3CCN(c4ccc(C(F)(F)F)cc4)C3C2)nnc1-c1ccc(=O)[nH]c1` (racemic): the Ki in assay [1] was 398 nM; in assay [3], 3.98 nM. The compound also had a 50% inhibitory concentration (IC50) in assay [2] of 1000 nM.

`COc1cc(N2CCC3CN(CCCSc4nnc(-c5cnccn5)n4C)CC32)ccc1F` (racemic): the Ki in assay [1] was 501 nM; in assay [3] it was 3.16 nM.

Turning to `Cn1c(SCCCN2CC3CCN(c4c(F)cccc4F)C3C2)nnc1-c1cnccn1` (racemic), the affinity in assay [1], expressed as Ki, was 631 nM. This counts as sub-micromolar.

`Cc1cccc(N2CCC3CN(CCCSc4nnc(-c5cnccn5)n4C)CC32)c1` (racemic) had an inhibition constant (Ki) in assay [3] of 3.98 nM.

As for `Cc1ncoc1-c1nnc(SCCCN2CC3CCN(c4ccccc4OC(F)(F)F)C3C2)n1C` (racemic), the inhibition constant Ki in assay [1] was 20 nM; in assay [3] it was 1 nM.

For the compound `Cn1c(SCCCN2CC3CCN(c4c(F)cccc4C(F)(F)F)C3C2)nnc1-c1cnccn1` (racemic), the Ki is 398 nM in assay [1] and 3.98 nM in assay [3].

`Cc1ncoc1-c1nnc(SCCCN2CC3CCCN(c4ccc(C(F)(F)F)cc4)C3C2)n1C` (racemic): the affinity in assay [3] corresponds to a Ki of 12.6 nM. This lies in the double-digit nanomolar range.

`Cc1ncoc1-c1nnc(SCCCN2CC3CCN(c4c(F)cccc4F)C3C2)n1C` (racemic) gave a Ki in assay [3] of 2.51 nM.

Compound `Cc1ncoc1-c1nnc(SCCCN2CC3CCN(c4ccccc4)C3C2)n1C` (stereo in doubt; 6a) had a Ki in assay [1] of 398 nM. The same compound had an IC50 in assay [2] of 1580 nM.

As for `Cc1ncoc1-c1nnc(SCCCN2CC3CCN(c4ccc(C(F)(F)F)cc4)C3C2)n1C` (stereo in doubt; 7a), the Ki in assay [3] was 2 nM.

The compound `Cc1ncoc1-c1nnc(SCCCN2CC3CCN(c4ccc(C(F)(F)F)cc4)C3C2)n1C` (stereo in doubt; 7b) showed an inhibitory constant (Ki) in assay [3] of 3.16 nM.

Turning to `Cc1ncoc1-c1nnc(SCCCN2CC3CCN(c4ccc(F)cc4)C3C2)n1C` (stereo in doubt; 9b), in assay [1], the affinity, expressed as Ki, was 200 nM.

In turn, `Cn1c(SCCCN2CC3CCN(c4ccc(C(F)(F)F)cc4)C3C2)nnc1-c1cnccn1` (stereo in doubt; 17a) showed a Ki in assay [1] of 501 nM.

As to `CC(C)Oc1ccccc1N1CCC2CN(CCCSc3nnc(-c4cnccn4)n3C)CC21` (stereo in doubt; 35a), the Ki in assay [1] is 5010 nM; in assay [3], 63.1 nM.

As for `Cn1c(SCCCN2CC3CCN(c4ccc(F)cc4F)C3C2)nnc1-c1cnccn1` (stereo in doubt; 36a), the Ki is 1000 nM in assay [1] and 10 nM in assay [3].

In turn, `Cn1c(SCCCN2CC3CCN(c4ccccc4C(F)(F)F)C3C2)nnc1-c1cccnc1` (stereo in doubt; 52b) gave a Ki in assay [1] of 1260 nM.

On to `Cn1c(SCCCN2CC3CCN(c4ccc(C(F)(F)F)cc4)C3C2)nnc1-c1cc[nH]c(=O)c1` (stereo in doubt; 55a), for which the Ki in assay [1] was 2000 nM; in assay [3] it was 15.8 nM.

In assay [3], `Cn1c(SCCCN2CC3CCN(c4ccc(C(F)(F)F)cc4)C3C2)nnc1N1CCOCC1` (stereo in doubt; 61a) had an inhibition constant (Ki) of 3.16 nM.

Turning to `Cn1c(SCCCN2CC3CCN(c4ccc(C(F)(F)F)cc4)C3C2)nnc1N1CCOCC1` (stereo in doubt; 61b), the results for the Ki in assay [1] and in assay [3] were 200 nM and 2 nM, respectively.

`Cn1c(SCCCN2CC3CCN(c4ccccc4)C3C2)nnc1C1CCOCC1` (stereo in doubt; 62b) showed a Ki in assay [3] of 25.1 nM.

`Cn1c(SCCCN2CC3CCN(c4ccc(C(F)(F)F)cc4)C3C2)nnc1C1CCCC1` (stereo in doubt; 64a) had a Ki in assay [3] of 0.2 nM.

With `Cn1c(SCCCN2CC3CCN(c4ccc(C(F)(F)F)cc4)C3C2)nnc1C1CCCCC1` (stereo in doubt; 65a), in assay [3], affinity was put at a Ki of 12.6 nM. Compared with the last compound, the Ki is about 63-fold higher.
